Test results as given in patent US8354433B2, “Anti-inflammatory agents as virostatic compounds” (4SC AG, priority 2009, dated 2013).
Where two headings read alike, the source gives them in different places.

Legend:
[1] = biological target: dihydroorotate dehydrogenase (DHODH) (Homo sapiens, UniProt Q02127); test: DHODH inhibition, in vitro assay; assay type: biochemical
[2] = tested on: HIV-191US005; test: Anti-HIV efficacy in fresh human PBMCs (RT activity and p24 ELISA); assay type: cell-based, HIV-1; conditions: Human immunodeficiency virus 1, PBMC, 168 h; for EC50: read-out: EC50/nM; for EC90: read-out: EC90/nM
[3] = tested on: HCV subgenomic replicon of genotype 1b; test: microbe, parasite or virus in culture; assay type: cell-based; conditions: Hepatitis C virus, 24 h, read-out: Antiviral Activity EC50/nM
[4] = tested on: human PBMCs; test: MTS cytotoxicity in human PBMCs; conditions: seven days
[5] = tested on: ET cell line (luc-ubi-neo/ET), Huh7; test: CytoTox-1 cytotoxicity in ET cells; conditions: 24 h, cell unit μM
[6] = tested on: HBV; test: Anti-HBV evaluation with HepG2 2.2.15 cells (extracellular HBV DNA, qPCR); assay type: cell-based; conditions: Hepatitis B virus, 144 h; HepG2 2.2.15 cells, HBV DNA, six days; read-out: Antiviral Activity EC50
Protocol: Compounds were solubilized in DMSO in a concentration of 40 mM. (−)-2′-Desoxy-3′-thiacytidin (3TC) was used as the positive antiviral controls. The high-test concentrations were 10 μM for 4SC compounds and 1 μM for 3TC.
Briefly, HepG2-2.2.15 cells were plated in 96-well microtiter plates. Only the interior wells were utilized to reduce “edge effects” observed during cell culture; the exterior wells were filled with complete medium to help minimize sample evaporation. After 16-24 hours the confluent monolayer of HepG2-2.2.15 cells was washed and the medium was replaced with complete medium containing various concentrations of a test compound in triplicate. 3TC was used as the positive control, while media alone was added to cells as a negative control. Three days later the culture medium was replaced with fresh medium containing the appropriately diluted drug. Six days following the initial administration of the test compound, the cell culture supernatant was collected, treated with pronase and then used in a quantitative qPCR TaqMan assay. Antiviral activity was calculated from the reduction in HBV DNA levels (IC50). Cell Titer 96 ®AQueous One Solution Cell Proliferation kit (Promega, Madison, Wis.) was used to measure cell viability which is used to calculate toxicity (TC50). The therapeutic index (TI) was calculated as TC50/IC50

[7] = Cell viability in HepG2-2.2.15 cells (Cell Titer 96); assay type: cell-based; conditions: human, six days, read-out: TC50
Protocol: Anti-HBV assay was performed as described in Korba, B F and Milman, G., 1991 (A cell culture assay for compound which inhibits hepatitis B virus replication. Antiviral Res. 15: 217-228) and in Korba, B F and Gerin, J L., 1992 (Use of a standardized cell culture assay to assess activities of nucleoside analogs again hepatitis B virus replication. Antiviral Res. 19: 55-70) with modifications to measure extracellular HBV DNA copy with real-time PCR (qPCR/TaqMan). Briefly, HepG2-2.2.15 cells were plated in 96-well microtiter plates. Only the interior wells were utilized to reduce “edge effects” observed during cell culture; the exterior wells were filled with complete medium to help minimize sample evaporation. After 16-24 hours the confluent monolayer of HepG2-2.2.15 cells was washed and the medium was replaced with complete medium containing various concentrations of a test compound in triplicate. 3TC was used as the positive control, while media alone was added to cells as a negative control. Three days later the culture medium was replaced with fresh medium containing the appropriately diluted drug. Six days following the initial administration of the test compound, the cell culture supernatant was collected, treated with pronase and then used in a quantitative qPCR TaqMan assay. Antiviral activity was calculated from the reduction in HBV DNA levels (IC50). Cell Titer 96 ®AQueous One Solution Cell Proliferation kit (Promega, Madison, Wis.) was used to measure cell viability which is used to calculate toxicity (TC50). The therapeutic index (TI) was calculated as TC50/IC50

[8] = tested on: RSV Strain Long; test: microbe, parasite or virus in culture; assay type: cell-based; conditions: human respiratory syncytial virus, Vero, read-out: Antiviral Activity EC50
[9] = tested on: DENV Type 2 (New Guinea); test: microbe, parasite or virus in culture; assay type: cell-based; conditions: Dengue virus, Vero C1008, read-out: Antiviral Activity EC50
[10] = tested on: YFV Strain 17D; test: microbe, parasite or virus in culture; assay type: cell-based; conditions: Yellow fever virus, Vero, read-out: Antiviral Activity EC50
[11] = tested on: WNV Strain NY-99; test: microbe, parasite or virus in culture; assay type: cell-based; conditions: West Nile virus, Vero, read-out: Antiviral Activity EC50
[12] = tested on: Influenza Virus (H7N7); test: microbe, parasite or virus in culture; assay type: cell-based, avian influenza virus (Fowl Plaque Virus; conditions: unidentified influenza virus, H7N7, A549, 16 h; for inhibition at 30 µM: read-out: Antiviral Activity % Inhibition
[13] = Table 2, read-out: DHODH IC50/nM
[14] = Table 8, read-out: DHODH IC50/nM

Chain of dihydroorotate dehydrogenase (DHODH) (Q02127 whole entry): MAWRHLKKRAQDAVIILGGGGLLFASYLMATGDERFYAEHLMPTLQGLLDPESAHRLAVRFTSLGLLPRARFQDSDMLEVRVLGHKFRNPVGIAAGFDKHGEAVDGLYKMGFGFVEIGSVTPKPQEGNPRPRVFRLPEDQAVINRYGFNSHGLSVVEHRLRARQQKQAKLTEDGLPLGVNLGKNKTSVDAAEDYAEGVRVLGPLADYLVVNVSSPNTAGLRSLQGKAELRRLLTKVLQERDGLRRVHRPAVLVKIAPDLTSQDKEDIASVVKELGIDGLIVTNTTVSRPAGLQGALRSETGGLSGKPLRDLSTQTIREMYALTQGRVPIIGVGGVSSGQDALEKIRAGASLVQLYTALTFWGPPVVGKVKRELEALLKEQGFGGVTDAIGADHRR

Structure (SMILES)	IC50 ([1]; DHODH IC50/nM, Table 1)	EC50 ([2]; Endpoint RT, seven days)	EC90 ([2]; Endpoint RT, seven days)	EC50 ([2]; Endpoint p24, seven days)	EC90 ([2]; Endpoint p24, seven days)	TC50/nM [4]	IC50 [1, 14]	inhibition at 30 µM [12]	further results
O=C(O)C1=C(C(=O)Nc2c(F)cc(-c3ccccc3Cl)cc2F)CSC1 [Compound 2, 4-(2′-Chloro-3,5-difluoro-biphenyl-4-ylcarbamoyl)-2,5-dihydro-thiophene-3-carboxylic acid]	< 20 nM	920 nM	2590 nM	1380 nM	2770 nM	>100000 nM			IC50 [1, 13]: < 20 nM; EC50 [3]: 680 nM; TC50 [5]: >100 µM
O=C(O)C1=C(C(=O)Nc2ccc(OCc3c(F)cccc3Cl)c(Cl)c2)CCC1 [Compound 3, 2-[3-Chloro-4-(2-chloro-6-fluoro-benzyloxy)-phenylcarbamoyl]-cyclopent-1-enecarboxylic acid]	< 20 nM	190 nM	700 nM	190 nM	630 nM	44800 nM			IC50 ([1]; DHODH IC50/nM, Table 7): < 20 nM; IC50 [1, 13]: < 20 nM; IC50 ([1]; Table 3, read-out: DHODH IC50/nM): < 20 nM; IC50 ([1]; Table 4, read-out: DHODH IC50/nM): < 20 nM; IC50 ([1]; Table 5, read-out: DHODH IC50/nM): < 20 nM; IC50 ([1]; Table 6, read-out: DHODH IC50/nM): < 20 nM; EC50 [3]: 500 nM; EC50 [6]: > 10 µM; CC50 at 6 days [7]: > 10 µM; EC50 [8]: > 10 µM; EC50 [9]: 83 nM; EC50 [10]: 2190 nM; EC50 [11]: > 10 µM
O=C(Nc1ccc(-c2ccccc2)cc1)Nc1ccccc1C(=O)O [Compound 7, 2-(3-biphenyl-4-ylureido)benzoic acid]	< 20 nM	50 nM	210 nM	60 nM	230 nM	>100000 nM			
COc1cccc(-c2c(F)c(F)c(NC(=O)c3occc3C(=O)O)c(F)c2F)c1 [Compound 8, 2-(2,3,5,6-tetrafluoro-3′-methoxybiphenyl-4-ylcarbamoyl)furan-3-carboxylic acid]	< 20 nM	760 nM	2700 nM	840 nM	2970 nM	>100000 nM	< 20 nM	> 50%	
CCOc1cccc(-c2cc(F)c(NC(=O)c3cscc3C(=O)O)c(F)c2)c1 [Compound 9, 4-(3′-ethoxy-3,5-difluorobiphenyl-4-ylcarbamoyl)thiophene-3-carboxylic acid]							< 20 nM	> 80%	
COc1cccc(-c2c(F)c(F)c(NC(=O)C3=C(C(=O)O)CCC3)c(F)c2F)c1 [Compound 10, 2-(2,3,5,6-tetrafluoro-3′-methoxybiphenyl-4-ylcarbamoyl)cyclopent-1-enecarboxylic acid]								> 80%	
COc1ccccc1-c1c(F)c(F)c(NC(=O)C2=C(C(=O)O)CCC2)c(F)c1F [Compound 11, 2-(2,3,5,6-tetrafluoro-2′-methoxybiphenyl-4-ylcarbamoyl)cyclopent-1-enecarboxylic acid]							< 20 nM	> 90%	EC50 [12]: ~3000 nM
O=C(O)C1=C(C(=O)Nc2c(F)cc(-c3cccc(OC(F)(F)F)c3)cc2F)CCC1 [Compound 12, 2-(3,5-difluoro-3′-(trifluoromethoxy)biphenyl-4-ylcarbamoyl)cyclopent-1-enecarboxylic acid]							20 to 200 nM	> 80%	
O=C(O)C1=C(C(=O)Nc2c(F)c(F)c(-c3cccc(OC(F)(F)F)c3)c(F)c2F)C(O)CC1 (centres unmarked) [Compound 13, 3-hydroxy-2-(2,3,5,6-tetrafluoro-3′-(trifluoromethoxy)biphenyl-4-ylcarbamoyl)cyclopent-1-enecarboxylic acid]							< 20 nM	> 50%	
COc1ccc(-c2ccc(NC(=O)C3=C(C(=O)O)CCC3)cc2Cl)cc1 [Compound 14, 2-(2-chloro-4′-methoxybiphenyl-4-ylcarbamoyl)cyclopent-1-enecarboxylic acid]	20 to 200 nM	5240 nM	12200 nM	5180 nM	16600 nM	>100000 nM	20 to 200 nM	> 50%	
O=C(O)c1cscc1C(=O)Nc1c(F)cc(-c2cccc(OC(F)(F)F)c2)cc1F [Compound 15, 4-(3,5-difluoro-3′-(trifluoromethoxy)biphenyl-4-ylcarbamoyl)thiophene-3-carboxylic acid]							< 20 nM	> 80%	
O=C(O)C1=C(C(=O)Nc2ccc(OCc3c(F)cccc3Cl)c(F)c2)CCC1 [Compound 21, 2-[4-(2-Chloro-6-fluoro-benzyloxy)-3-fluoro-phenylcarbamoyl]-cyclopent-1-enecarboxylic acid]									IC50 [1, 13]: 20 to 200 nM; EC50 [3]: 1740 nM; TC50 [5]: >30 µM
O=C(O)C1=C(C(=O)Nc2cc(Cl)c(OCc3c(F)cccc3Cl)c(Cl)c2)CCC1 [Compound 22, 2-[3,5-Dichloro-4-(2-chloro-6-fluoro-benzyloxy)-phenylcarbamoyl]-cyclopent-1-enecarboxylic acid]									IC50 [1, 13]: 20 to 200 nM; EC50 [3]: 1760 nM; TC50 [5]: >30 µM
CN(C)c1ccc(-c2ccc(NC(=O)C3=C(C(=O)O)CCC3)cc2Cl)cc1 [Compound 23, 2-(2-Chloro-4′-dimethylamino-biphenyl-4-ylcarbamoyl)-cyclopent-1-enecarboxylic acid]	20 to 200 nM	1070 nM	3480 nM	1000 nM	3720 nM	>100000 nM			
COc1cccc(-c2ccc(NC(=O)c3ccsc3C(=O)O)c(F)c2)c1 [Compound 24, 3-(3-Fluoro-3′-methoxy-biphenyl-4-ylcarbamoyl)-thiophene-2-carboxylic acid]		3970 nM	9070 nM	4540 nM	12300 nM	55800 nM			IC50 [1]: 20 to 200 nM
O=C(O)C1=C(C(=O)Nc2c(F)c(F)c(-c3cccc(OC(F)(F)F)c3)c(F)c2F)CSC1 [Compound 25, 4-(2,3,5,6-Tetrafluoro-3′-trifluoromethoxy-biphenyl-4-ylcarbamoyl)-2,5-dihydro-thiophene-3-carboxylic acid]	< 20 nM	1560 nM	3020 nM	1180 nM	3160 nM	>100000 nM			
